Measured values published in US20080227853A1, “ANDROGENE MEMBRANE RECEPTOR AGONIST” (BIONATURE E. A. LIMITED, priority 2007, published 2008).

tested on: T47D human breast cancer cells; experiment: Actin cytoskeleton modification in T47D cells (rhodamine-phalloidin staining); assay type: cell-based; conditions: T47D cells incubated 24 hours, FIG. 3

Molecule | modifications of the actin cytoskeleton
Oc1cc(O)c2c(c1)O[C@H](c1ccc(O)c(O)c1)[C@H](O)[C@H]2c1c(O)cc(O)c2c1O[C@H](c1ccc(O)c(O)c1)[C@H](O)C2 [B2] | polymerization and sub-membrane redistribution
Oc1cc(O)c2c(c1)O[C@H](c1ccc(O)c(O)c1)[C@H](O)[C@H]2c1c(O)cc2c(c1O)C[C@@H](O)[C@@H](c1ccc(O)c(O)c1)O2 [B5] | polymerization and sub-membrane redistribution
catechin | polymerization and sub-membrane redistribution
